Molecules are shown by their SMILES.

In general, melting point refers to the temperature of the solid-liquid transition. Compound `O=C(NN=Cc1cc(Cl)cc(Cl)c1O)c1cccc(OC(F)(F)F)c1` showed a melting point of 180 to 182 °C.

For the compound `CCc1nc(N)nc(N)c1-c1ccc(NCc2ccc(Cl)c(Cl)c2)c([N+](=O)[O-])c1`, the melting point was 244 to 246 °C.

For the compound `CN1C(=O)CC[C@]2(C)c3ccc(-c4cccc5cccnc45)cc3CC[C@@H]12`, the melting point is 205 to 207 °C.

In the case of `Cn1c(=O)ccc2ccc(N)cc21`, the melting point is 268 to 269 °C.

Compound `O=C(c1cc(C(F)(F)F)cc(C(F)(F)F)c1)N1CCN(C(=O)CN2CC3CC2CN3Cc2ccccc2)C(c2ccc(Cl)c(Cl)c2)C1` (racemic) yielded a melting point of 75 to 77 °C.

In turn, `CCC(=NO)c1ccncc1` had a melting point of 141 to 144 °C.

`CN(C)CCNC(=O)N1CCC(Oc2cccc(Cl)c2Cl)C1` (stereo unspecified) came in with a melting point of 94 to 95 °C.

Compound `NNCCCCS(=O)(=O)O` gave a melting point of 152 to 154 °C.

For `Nc1ccc(O)c(N)c1`, the melting point came out at 78 °C.

For the compound `O=C(CCCC1CCCCC1)C1=C(O)CSC1=O`, the melting point was 45 to 50 °C.

Turning to `CN(C)C(=O)Cc1ccccc1Nc1c(F)c(F)cc(F)c1F`, the melting point was in the range of 109 to 110 °C.

As for `C=C1N(C2CCCCC2)C(=O)OC12CCN(CCC=C(c1ccc(F)cc1)c1ccc(F)cc1)CC2`, the melting point was 145 to 146 °C.

In turn, `Clc1ccc2onc(CBr)c2c1` came in with a melting point of 83 to 85 °C.

For `C=COC(=O)N=c1sc2cc(OC(F)(F)F)ccc2n1CCO`, the melting point worked out at 190 °C.

For `O=C(N[C@@H](Cc1ccccc1)C(=O)O)c1cccc(NC(=O)C(CS)Cc2ccccc2)c1` (stereo partly specified), the melting point was 83 to 85 °C.

`O=[N+]([O-])c1ccccc1CSc1nnnn1-c1ccccc1` registered a melting point of 158 to 161 °C.

`Cc1nc2ccccc2n1-c1ccc(C(=O)O)cc1`: the melting point was 299 to 300 °C.

For `C#CCN1CC(=O)N(c2c(C)cccc2C)C1=S`, the melting point lay in the range of 117 to 121 °C.

The compound `COC(=O)c1cccc2cc(-c3ccc(N)cc3)oc12` registered a melting point of 158 to 161 °C.

As for `O=C(CC(=O)c1ccc(F)cc1)c1ccc(F)cc1`, the melting point is 70 to 72 °C.

In turn, `CCCCCCC(=O)N1C(C)Cc2ccccc2C1CNC(=O)c1cc(OC)c(OC)c(OC)c1` (stereo unspecified) displayed a melting point of 161 to 163 °C.

`CCOC(=O)Cc1c2n(c3ccc(F)cc13)C(c1ccc(SC)cc1)=NCC2` showed a melting point of 119 to 120 °C.

`Oc1c2c(nn1-c1ccccn1)CCc1cc(-c3ccccc3)ccc1-2` came in with a melting point of 133 to 134 °C.

Turning to `CCOCc1nc2c(N)nc3cccnc3c2n1CC1(O)CCOCC1`, the melting point is 166 to 167 °C.

For the compound `O=C(O)CCCN1C(=O)C(c2ccccc2)SC1=S` (stereo unspecified), the melting point lay within 138 to 139 °C.

On to `COc1csc(Cc2c(C(C)C)cc(C(C)C)c(C(C)O)c2-c2ccc(F)cc2)c1` (single isomer, unassigned; (+)), for which the melting point was 140 to 142 °C.

Consider `CC(=O)OCc1csc(-c2nc3n(c2-c2ccncc2)CCC3)c1`, for which the melting point came to 126 °C.

`Cc1ccnc2[nH]c(=O)c(CC(=O)O)cc12`: the melting point was more than 250 °C.

Regarding `CC(=O)n1cc(Cl)c(-c2cccc(Cl)c2Cl)c1`, the melting point amounted to 97 °C.

`CCCCOC(=O)c1cc([N+](=O)[O-])c(Oc2ccc(OCc3ccccc3)cc2)c(S(N)(=O)=O)c1` showed a melting point of 138 to 144 °C.

Consider `CC1(C)CC(N2CCCCCC2=O)CC(C)(C)N1`, for which the melting point lay in the range of 113 to 117 °C.

The compound `CC(C)(N)CNC(CO)(CO)CO` displayed a melting point of 73 to 75 °C.

`COCCCNC(=O)C1CCN(C(=O)c2[nH]c(C)c(-c3nc4ccc(C(=O)c5ccccc5)cc4[nH]3)c2C)CC1` displayed a melting point of 289 to 291 °C.

With `CSc1nc(NC2CCCCC2)c2nsnc2n1`, the melting point fell in the range of 134 to 136 °C.

`COc1cc(N)c(Cl)cc1C(=O)NCC1CCN(CCCCCNC(=O)c2ccc(C)cc2)CC1` came in with a melting point of 142 to 146 °C.

Regarding `O=C(O)C=CC=Cc1cccc2cncn12`, the melting point lay in the range of 243 to 245 °C.

`C[C@H](CSC(=O)c1ccccc1)C(=O)O` had a melting point of 63 to 65 °C.

Compound `COC(=O)Oc1ccc(N=Cc2ccc(C#N)cc2)cc1` returned a melting point of 145 to 146 °C.

The compound `CCOC(=O)CCCCCn1c(C(=O)O)cc2ccccc21` returned a melting point of 62 °C.

`O=C(O)Cc1c([N+](=O)[O-])cc(O)c(O)c1[N+](=O)[O-]`: the melting point lay within 178 to 184 °C.

The compound `CCC(=O)NNc1ccnc2c(NC(=O)c3c(Cl)cccc3Cl)cccc12` yielded a melting point of 246 to 248 °C.

The compound `CONS(=O)(=O)c1cccc(Cl)c1` had a melting point of 72 to 74.5 °C.

With `Nc1cccc(SC2SCC(O)C(O)C2O)c1` (stereo unspecified), the melting point fell in the range of 128 to 132 °C.

Compound `CCOC(=O)C(=NOCC(=O)OCC(Cl)(Cl)Cl)c1csc(N)n1` showed a melting point of 138 to 141 °C.

In turn, `CSc1ccc(-c2cc(C(F)F)nn2-c2ccc(S(N)(=O)=O)cc2)cc1` showed a melting point of 157 to 158 °C.

Consider `CC(C)Oc1c(C2=CC(C)(C)Oc3ccc(C#N)cc32)c(=O)c1=O`, for which the melting point was in the range of 169 to 170 °C.

The compound `Nc1ccnc(C(F)(F)F)c1` registered a melting point of 56 to 58 °C.

With `CCC(=O)N=C(Nc1c(Cl)cccc1Cl)SC`, the melting point lay within 165 to 170 °C.

`N#Cc1ccc(-c2ccc(OC3SCC(O)C(O)C3O)c(F)n2)cn1` (stereo unspecified) returned a melting point of 158 to 162 °C.

Regarding `COc1ccc(-c2ccc3ccc(NC(=O)c4ccccc4)nc3n2)cc1`, the melting point was 185 to 187 °C.

In turn, `CC1OC(C)(C)c2cc(-c3ccc(C#N)n3C)ccc2N1C(=O)OCC1c2ccccc2-c2ccccc21` (stereo unspecified) registered a melting point of 63 to 64 °C.

Regarding `CC(C#N)Oc1cccc(C=Cc2ccc3ccc(Cl)cc3n2)c1` (stereo unspecified), the melting point fell in the range of 118 to 120 °C.

Turning to `CCCCOc1ccc(Oc2cc(=O)c3c(OCCCC)c(OC)c(OCCCC)cc3o2)cc1`, the melting point lay within 62 to 63 °C.

`CC1(C)OCC(C(O)CN)O1` (stereo unspecified): the melting point is 94 to 96 °C.

`CN1CC(=O)Nc2ccc(C(F)(F)F)cc2C1=O` came in with a melting point of 203 to 206 °C.

As for `N#CC(C(=O)C(=O)C(C#N)c1ccc(Cl)cc1)c1ccc(Cl)cc1` (stereo unspecified), the melting point turned out to be 255 °C.

`NC(=O)CN1CCN(C(=O)c2cc(C(F)(F)F)cc(C(F)(F)F)c2)[C@H](Cc2c[nH]c3ccccc23)C1`: the melting point was in the range of 170 to 173 °C.

On to `ON=C(CCC(CN1CCN(c2ncccn2)CC1)C(=NO)c1ccccc1)c1ccccc1` (stereo unspecified), for which the melting point is 75 to 78 °C.

The compound `CCOC(=O)NS(=O)(=O)c1ccc2c(c1)CCO2` registered a melting point of 118 to 119 °C.

As for `CCCCCCCc1ccc(-c2cnc(-c3ccc(OCCCCCC)c(F)c3)nc2)cc1`, the melting point amounted to 80.5 °C.

In turn, `OC1CSC(Oc2cccc(-c3ccco3)c2)C(O)C1O` (stereo unspecified) came in with a melting point of 138 °C.

The compound `Cc1ccc2ccc(N3C(=O)c4cccnc4C3OC(=O)N3CCN(C)CC3)nc2n1` (stereo unspecified) gave a melting point of 226 °C.

As to `CC(=O)Cc1cc2c(cc1C(=O)c1ccc([N+](=O)[O-])c(C)c1)OCO2`, the melting point lay within 146 to 148 °C.

On to `CCOC(=O)Cn1c(=O)c2ccccc2n(Cc2ccc(Cl)cc2)c1=O`, for which the melting point lay within 138 to 139 °C.

Compound `CCCc1nc(C(C)(C)O)c(C(=O)OCOC(=O)C(C)(C)C)n1Cc1ccc(-c2ccccc2C(=O)O)cc1` displayed a melting point of 170 to 173 °C.

On to `COc1ccc2c(n1)C1(CO2)C(=O)N(Cc2csc(C(C)C)n2)c2ccccc21` (stereo unspecified), for which the melting point fell in the range of 136 to 138 °C.

`COc1cc(N(C)C(=O)CN2CCN(C)CC2)ccc1N`: the melting point lay in the range of 115 to 118 °C.

As for `COc1ccc2cc(Nc3ccc(O)cc3)ccc2c1`, the melting point is 153 to 154 °C.

In turn, `Cn1c(Cl)c(C=O)c2ccc(Cl)cc21` had a melting point of 166 to 168 °C.

The compound `CC(=O)c1cc(S(=O)(=O)c2cccc(F)c2)ccc1OC[C@@H]1CO1` had a melting point of 113 to 115 °C.

Compound `CC(C)(C)C1=C(c2cc3cc(O)ccc3o2)OCC1(C)C` gave a melting point of 129 to 130 °C.

As to `CSc1nn2c(N)cc(C)nc2c1S(=O)(=O)c1ccccc1C`, the melting point is more than 250 °C.

`CC(=O)c1ccc(-c2ccc(N(Cc3ccccc3)Cc3ccccc3)cc2)c(C)c1` came in with a melting point of 145 to 146 °C.

`Nc1nc2ccc(S(=O)(=O)n3c(CCCC(=O)O)cc4nc(Cl)ccc43)cc2s1` came in with a melting point of more than 250 °C.

The compound `Cc1c(C(=O)Nc2cc(Cl)c(N3CCC(N4CCOCC4)CC3)c(Cl)c2)cnn1-c1ccc(Cl)cc1` showed a melting point of 246 to 248 °C.

Compound `N=C(N[N+](=O)[O-])N1CCCC1` showed a melting point of 188 to 191 °C.

`CC1(n2cccc2)CN(c2c(F)cc3c(=O)c(C(=O)O)cn(C4CC4)c3c2F)C1` showed a melting point of 249 to 252 °C.

`CC(O)c1cc2cc(O)c(Cl)c(Cl)c2s1` (stereo unspecified) gave a melting point of 173 to 174 °C.

`O=C(Nc1cccc(Cl)c1)ONC1C=NC(c2ccccc2Cl)=c2cc(Cl)ccc2=N1` (stereo unspecified) registered a melting point of 125 to 137 °C.

`O=C1CCCc2c1ccn2S(=O)(=O)c1ccccc1` returned a melting point of 108 to 110 °C.

Take `CCCCNc1nc(C)c(C(=O)OCC)c(N)c1[N+](=O)[O-]`: the melting point was in the range of 74 to 76 °C.

Regarding `CCn1cc(C(=O)O)c(=O)c2cc(C)sc21`, the melting point fell in the range of 229 to 230 °C.

As for `O=C(Nc1ccc2cc(CN3CCCC3)cnc2c1F)c1ccc(-c2ccccc2)cc1F`, the melting point was in the range of 136 to 137 °C.

In the case of `OCCCc1cccc2ccncc12`, the melting point was 66 to 69 °C.

In the case of `CCOc1c(C)c(N2CCN(c3ccc(OC)cc3)CC2)c(C)c2c1OC(C)(C)C2`, the melting point fell in the range of 151 to 153 °C.

`Cc1cc(C)cc(C(=O)N2CCC(N3CCC(NCCc4ccccc4)CC3)CC2Cc2ccccc2)c1` (stereo unspecified) displayed a melting point of 67.8 °C.

Regarding `CCOc1ccc(S(=O)(=O)c2ccc(C)nc2Nc2c(C)cc(C)cc2C)cc1`, the melting point lay in the range of 157 to 159 °C.

The compound `O=C(c1cc(Cl)ccc1O)c1cc(Cl)cc([N+](=O)[O-])c1O` came in with a melting point of 153 °C.

For `Cn1c2ccccc2c(=O)c2c(Br)cccc21`, the melting point lay within 219 to 221 °C.

The compound `Fc1ccc(Nc2ncnc3[nH]c(-c4ccc(CCl)cc4)cc23)cc1Cl` displayed a melting point of more than 300 °C.

Take `CC(=O)Nc1ccc(C)c2c1C(=O)CCN2CC#N`: the melting point was 190 to 193 °C.

The record behind these values is a melting point compilation (Tetko et al.; mined from patent text by program, amines drawn as free bases though some values may be those of a salt).
